Laboratory results as given in US7241795B2, “Synthesis and antimicrobial activity of novel dicationic “reversed amidines”” (The University of North Carolina at Chapel Hill, priority 2000, dated 2007).
In brackets after ≈: the same amount, converted by molar mass. Read-outs that look alike come from different tables or passages of the source.

How the values were obtained:
poly dA•dT = assay: DNA thermal melting (ΔTm); type: binding
other pathogenic fungi = assay: Expanded fungus panel, overall; type: cell-based
Protocol: Antifungal Test Organisms. The fungi used in this study for all the compounds in Table 1 included two reference strains C. albicans A39 and Aspergillus fumigatus (strain 168.95).
Medium. Antifungal susceptibility testing was performed with RPMI 1640 medium (Sigma Chemical Co., St. Louis, Mo.) with glutamine, but without sodium bicarbonate and buffered at pH 7.0 with 0.165 M morpholinopropanesulfonic acid.
Antifungal In Vitro Susceptibility Testing. Experiments for determination of MICs of yeasts were performed by the broth macrodilution method according to the recommendations of the National Committee for Clinical Laboratory Standards. See National Committee for Clinical Laboratory Standards. Reference method for broth dilution susceptibility testing of yeasts Document M27-T. Tentative standard, National Committee for Clinical Laboratory Standards, Wayne, Pa., 1995). […] Briefly, this method specifies the use of an inoculum grown at 35° C. and adjusted to a concentration of 0.5×10^3 to 2.5×10^3 CFU/ml, incubation of the culture at 35° C., and reading at 48 h for all yeasts except for C. neoformans, for which the results are interpreted at 72 h. […]
The minimum fungicidal concentration (MFC) was determined by plating 100 μl aliquots from tubes showing complete inhibition of growth on Sabouraud agar plates. The lowest drug concentration that yielded three or fewer colonies was recorded as the MFC. […]

Aspergillus fumigatus = assay: Antifungal broth macrodilution susceptibility testing (MIC/MFC), mold; type: cell-based; conditions: for MIC80: 80% of inoculum inhibited
M. tuberculosis H37Rv = assay: Microplate Alamar Blue Assay (MABA) in BACTEC 12B medium; type: cell-based, Mycobacterium tuberculosis; conditions: Mycobacterium tuberculosis, H37RV; lowest concentration effecting ≧90% reduction of fluorescence; read-out: MTb MIC
d(CGCGAATTCGCG)2 = assay: DNA thermal melting (ΔTm); type: binding; conditions: oligo = d(CGCGAATTCGCG)2
Candida albicans = assay: Antifungal broth macrodilution susceptibility testing (MIC/MFC), yeast; type: cell-based; conditions: for MIC / MFC / MIC80: Candida albicans; for MIC80: 80% of inoculum inhibited
Rhizopus arrhizus = assay: Expanded fungus panel, broth macrodilution (MIC/MFC), mold; type: cell-based
Crytococcus neoformans = assay: Expanded fungus panel, broth macrodilution (MIC/MFC), yeast; type: cell-based; conditions: Cryptococcus neoformans, Crytococcus neoformans isolate H99
Fusarium solani = assay: Expanded fungus panel, broth macrodilution (MIC/MFC), mold; type: cell-based
Aspergillus flavus = assay: as above; type: cell-based; conditions: for MIC: Aspergillus flavus, 100% of inoculum inhibited
[1] = Aspergillus fumigatus, strain 168.95, read-out: Aspergillus fumigatus MIC
[2] = reference strain C. albicans A39, read-out: C. albicans MFC
[3] = reference strain C. albicans A39, read-out: C. albicans MIC
[4] = Aspergillus flavus isolate 107.96
[5] = Aspergillus flavus isolate 141.88

## COc1cc(N=Nc2ccccn2)ccc1-c1ccc(-c2ccc(N=Nc3ccccn3)cc2OC)o1 [Compound 6k, 2,5-Bis[2-methoxy-4-(2-pyridylimino)aminophenyl]furan]
Poly dA•dT
  DNA Affinities ΔTm (AT): 19.0
Other pathogenic fungi
  activity in the expanded fungus panel, in words: did not show significant activity
Aspergillus fumigatus
  activity against Aspergillus fumigatus, in words: fungicidal
Aspergillus fumigatus; Aspergillus fumigatus, read-out: Aspergillus fumigatus MIC
  MIC: ≤ 1 µg/mL
Aspergillus fumigatus; Aspergillus fumigatus, strain 168.95, read-out: Aspergillus fumigatus MFC
  MFC: ≤ 1 µg/mL
Aspergillus fumigatus; [1]
  MIC: 1 µg/mL (≈ 2.04 µM)
M. tuberculosis H37Rv
  MIC: 1 to 2 µg/mL (≈ 2.04 to 4.08 µM)
d(CGCGAATTCGCG)2
  DNA Affinities ΔTm (oligo): 7.8
Candida albicans
  activity against C. albicans, in words: fungicidal
Candida albicans; read-out: C. albicans MIC
  MIC: ≤ 1 µg/mL
Candida albicans; [2]
  MFC: ≤ 1 µg/mL
Candida albicans; [3]
  MIC: ≤ 2 µg/mL

## Cc1ccc(N=Nc2ccc(-c3ccc(-c4ccc(N=Nc5ccc(C)cn5)cc4C)o3)c(C)c2)nc1 [Compound 6j, 2,5-Bis[2-methyl-4-(5-methyl-2-pyridylimino)aminophenyl]furan]
Poly dA•dT
  DNA Affinities ΔTm (AT): 24.3
Aspergillus fumigatus
  activity against Aspergillus fumigatus, in words: less effective
Aspergillus fumigatus; Aspergillus fumigatus isolate 119.00, read-out: MFC
  MFC: > 100 µg/mL
Aspergillus fumigatus; Aspergillus fumigatus isolate 153.90
  MFC: >100 µg/mL
Aspergillus fumigatus; Aspergillus fumigatus isolate 165.86
  MFC: >100 µg/mL
Aspergillus fumigatus; Aspergillus fumigatus isolate 168.95, expanded panel
  MFC: >100 µg/mL
Aspergillus fumigatus; Aspergillus fumigatus isolate 182.99
  MFC: >100 µg/mL
Aspergillus fumigatus; Aspergillus fumigatus, Aspergillus fumigatus isolate 119.00
  MIC80: 3.12 µg/mL (≈ 6.41 µM)
Aspergillus fumigatus; Aspergillus fumigatus, Aspergillus fumigatus isolate 119.00, 100% of inoculum inhibited, read-out: MIC 100%
  MIC: 50 µg/mL (≈ 103 µM)
Aspergillus fumigatus; Aspergillus fumigatus, Aspergillus fumigatus isolate 153.90
  MIC80: 3.12 µg/mL (≈ 6.41 µM)
Aspergillus fumigatus; Aspergillus fumigatus, Aspergillus fumigatus isolate 153.90, 100% of inoculum inhibited, read-out: MIC 100%
  MIC: 50 µg/mL (≈ 103 µM)
Aspergillus fumigatus; Aspergillus fumigatus, Aspergillus fumigatus isolate 165.86
  MIC80: 50 µg/mL (≈ 103 µM)
Aspergillus fumigatus; Aspergillus fumigatus, Aspergillus fumigatus isolate 165.86, 100% of inoculum inhibited, read-out: MIC 100%
  MIC: 50 µg/mL (≈ 103 µM)
Aspergillus fumigatus; Aspergillus fumigatus, Aspergillus fumigatus isolate 168.95
  MIC80: 50 µg/mL (≈ 103 µM)
Aspergillus fumigatus; Aspergillus fumigatus, Aspergillus fumigatus isolate 168.95, 100% of inoculum inhibited, read-out: MIC 100%
  MIC: 50 µg/mL (≈ 103 µM)
Aspergillus fumigatus; Aspergillus fumigatus, Aspergillus fumigatus isolate 182.99
  MIC80: 3.12 µg/mL (≈ 6.41 µM)
Aspergillus fumigatus; Aspergillus fumigatus, Aspergillus fumigatus isolate 182.99, 100% of inoculum inhibited, read-out: MIC 100%
  MIC: 50 µg/mL (≈ 103 µM)
Aspergillus fumigatus; [1]
  MIC: 10 µg/mL (≈ 20.6 µM)
Rhizopus arrhizus
  activity versus Rhizopus arrhizus, in words: good fungicidal activity
Rhizopus arrhizus; Rhizopus arrhizus isolate 117.89
  MFC: 1.56 µg/mL (≈ 3.21 µM)
Rhizopus arrhizus; Rhizopus arrhizus isolate 117.89, 80% of inoculum inhibited
  MIC80: 0.78 µg/mL (≈ 1.6 µM)
Rhizopus arrhizus; Rhizopus arrhizus isolate 117.89, 100% of inoculum inhibited
  MIC: 1.56 µg/mL (≈ 3.21 µM)
M. tuberculosis H37Rv
  MIC: 1 to 2 µg/mL (≈ 2.06 to 4.11 µM)
Crytococcus neoformans
  MFC: > 100 µg/mL
Crytococcus neoformans; 80% of inoculum inhibited
  MIC80: 1.56 µg/mL (≈ 3.21 µM)
Crytococcus neoformans; 100% of inoculum inhibited
  MIC: 1.56 µg/mL (≈ 3.21 µM)
Fusarium solani
  activity against Fusarium solani, in words: not very effective
Fusarium solani; Fusarium solani isolate 152.89
  MFC: 50 µg/mL (≈ 103 µM)
Fusarium solani; Fusarium solani isolate 152.89, 80% of inoculum inhibited
  MIC80: 3.12 µg/mL (≈ 6.41 µM)
Fusarium solani; Fusarium solani isolate 152.89, 100% of inoculum inhibited
  MIC: 50 µg/mL (≈ 103 µM)
d(CGCGAATTCGCG)2
  DNA Affinities ΔTm (oligo): 10.8
Aspergillus flavus
  activity versus Aspergillus flavus, in words: less effective
Aspergillus flavus; [4]
  MFC: >100 µg/mL
  MIC: 50 µg/mL (≈ 103 µM)
Aspergillus flavus; Aspergillus flavus isolate 107.96, 80% of inoculum inhibited
  MIC 80%: 3.12 µg/mL (≈ 6.41 µM)
Aspergillus flavus; [5]
  MFC: >100 µg/mL
  MIC: 50 µg/mL (≈ 103 µM)
Aspergillus flavus; Aspergillus flavus isolate 141.88, 80% of inoculum inhibited
  MIC 80%: 3.12 µg/mL (≈ 6.41 µM)
Aspergillus flavus; Aspergillus flavus isolate 194.99, 80% of inoculum inhibited
  MIC80: 3.12 µg/mL (≈ 6.41 µM)
Aspergillus flavus; Aspergillus flavus isolate 194.99, read-out: MFC
  MFC: > 100 µg/mL
Aspergillus flavus; Aspergillus flavus isolate 194.99
  MIC: 6.25 µg/mL (≈ 12.8 µM)
Candida albicans
  activity against C. albicans, in words: quite effective
Candida albicans; Candida albicans isolate 116.98
  MIC80: 1.56 µg/mL (≈ 3.21 µM)
Candida albicans; Candida albicans isolate 116.98, 100% of inoculum inhibited, read-out: MIC 100%
  MIC: 1.56 µg/mL (≈ 3.21 µM)
Candida albicans; Candida albicans isolate 116.98, read-out: MFC
  MFC: > 100 µg/mL
Candida albicans; Candida albicans isolate 117.00
  MIC80: 0.78 µg/mL (≈ 1.6 µM)
Candida albicans; Candida albicans isolate 117.00, 100% of inoculum inhibited, read-out: MIC 100%
  MIC: 3.12 µg/mL (≈ 6.41 µM)
Candida albicans; Candida albicans isolate 117.00, read-out: MFC
  MFC: 25 µg/mL (≈ 51.4 µM)
Candida albicans; Candida albicans isolate 126.97
  MIC80: 1.56 µg/mL (≈ 3.21 µM)
Candida albicans; Candida albicans isolate 126.97, 100% of inoculum inhibited, read-out: MIC 100%
  MIC: 3.12 µg/mL (≈ 6.41 µM)
Candida albicans; Candida albicans isolate 126.97, read-out: MFC
  MFC: 3.12 µg/mL (≈ 6.41 µM)
Candida albicans; Candida albicans isolate 149.97
  MIC80: 0.78 µg/mL (≈ 1.6 µM)
Candida albicans; Candida albicans isolate 149.97, 100% of inoculum inhibited, read-out: MIC 100%
  MIC: 1.56 µg/mL (≈ 3.21 µM)
Candida albicans; Candida albicans isolate 149.97, read-out: MFC
  MFC: 6.25 µg/mL (≈ 12.8 µM)
Candida albicans; Candida albicans isolate 156.97
  MIC80: 1.56 µg/mL (≈ 3.21 µM)
Candida albicans; Candida albicans isolate 156.97, 100% of inoculum inhibited, read-out: MIC 100%
  MIC: 3.15 µg/mL (≈ 6.47 µM)
Candida albicans; Candida albicans isolate 156.97, read-out: MFC
  MFC: > 100 µg/mL
Candida albicans; Candida albicans isolate 159.95
  MIC80: 0.79 µg/mL (≈ 1.62 µM)
Candida albicans; Candida albicans isolate 159.95, 100% of inoculum inhibited, read-out: MIC 100%
  MIC: 1.58 µg/mL (≈ 3.25 µM)
Candida albicans; Candida albicans isolate 159.95, read-out: MFC
  MFC: 3.12 µg/mL (≈ 6.41 µM)
Candida albicans; Candida albicans isolate A39
  MIC80: 1.56 µg/mL (≈ 3.21 µM)
Candida albicans; Candida albicans isolate A39, 100% of inoculum inhibited, read-out: MIC 100%
  MIC: 1.56 µg/mL (≈ 3.21 µM)
Candida albicans; Candida albicans isolate A39, expanded panel, read-out: MFC
  MFC: 25 µg/mL (≈ 51.4 µM)
Candida albicans; read-out: C. albicans MIC
  MIC: ≤ 1 µg/mL
Candida albicans; [2]
  MFC: 10 µg/mL (≈ 20.6 µM)
Candida albicans; [3]
  MIC: ≤ 2 µg/mL
